pIC50: −log10 of the molar value.
Assays:
[1] = molecular target: T1, phosphorylated EGFR (pEGFR) (Homo sapiens, UniProt P00533); test: Detection of phosphorylated EGFR (pEGFR) by AlphaLISA in EGF-stimulated A431 cells; type: cell-based; conditions: A431 cells (10% FBS), 4 hours incubation, EGF 30 ng/mL for 10 minutes
T1 construct: performed to measure phosphorylated EGFR levels using A431 cells (10% FBS); endogenous in cells; host or cells: A431
Procedure, shortened: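 pEGFR was quantified by AlphaLISA in lysates of A431 cells (10% FBS) given a 10 min pulse of EGF at 30 ng/mL after 4 h compound exposure at 37 °C. IC50 came from a four-parameter fit of % inhibition between DMSO and staurosporine controls.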

[2] = molecular target: T2, phosphorylated ERBB2 (pERBB2) (Homo sapiens, UniProt P04626); test: Detection of phosphorylated ERBB2 (pERBB2) by ELISA in BT-474 cells; type: cell-based; conditions: four hour incubation
T2 construct: endogenous in cells; host or cells: BT-474
T2 sequence (P04626 23-1255): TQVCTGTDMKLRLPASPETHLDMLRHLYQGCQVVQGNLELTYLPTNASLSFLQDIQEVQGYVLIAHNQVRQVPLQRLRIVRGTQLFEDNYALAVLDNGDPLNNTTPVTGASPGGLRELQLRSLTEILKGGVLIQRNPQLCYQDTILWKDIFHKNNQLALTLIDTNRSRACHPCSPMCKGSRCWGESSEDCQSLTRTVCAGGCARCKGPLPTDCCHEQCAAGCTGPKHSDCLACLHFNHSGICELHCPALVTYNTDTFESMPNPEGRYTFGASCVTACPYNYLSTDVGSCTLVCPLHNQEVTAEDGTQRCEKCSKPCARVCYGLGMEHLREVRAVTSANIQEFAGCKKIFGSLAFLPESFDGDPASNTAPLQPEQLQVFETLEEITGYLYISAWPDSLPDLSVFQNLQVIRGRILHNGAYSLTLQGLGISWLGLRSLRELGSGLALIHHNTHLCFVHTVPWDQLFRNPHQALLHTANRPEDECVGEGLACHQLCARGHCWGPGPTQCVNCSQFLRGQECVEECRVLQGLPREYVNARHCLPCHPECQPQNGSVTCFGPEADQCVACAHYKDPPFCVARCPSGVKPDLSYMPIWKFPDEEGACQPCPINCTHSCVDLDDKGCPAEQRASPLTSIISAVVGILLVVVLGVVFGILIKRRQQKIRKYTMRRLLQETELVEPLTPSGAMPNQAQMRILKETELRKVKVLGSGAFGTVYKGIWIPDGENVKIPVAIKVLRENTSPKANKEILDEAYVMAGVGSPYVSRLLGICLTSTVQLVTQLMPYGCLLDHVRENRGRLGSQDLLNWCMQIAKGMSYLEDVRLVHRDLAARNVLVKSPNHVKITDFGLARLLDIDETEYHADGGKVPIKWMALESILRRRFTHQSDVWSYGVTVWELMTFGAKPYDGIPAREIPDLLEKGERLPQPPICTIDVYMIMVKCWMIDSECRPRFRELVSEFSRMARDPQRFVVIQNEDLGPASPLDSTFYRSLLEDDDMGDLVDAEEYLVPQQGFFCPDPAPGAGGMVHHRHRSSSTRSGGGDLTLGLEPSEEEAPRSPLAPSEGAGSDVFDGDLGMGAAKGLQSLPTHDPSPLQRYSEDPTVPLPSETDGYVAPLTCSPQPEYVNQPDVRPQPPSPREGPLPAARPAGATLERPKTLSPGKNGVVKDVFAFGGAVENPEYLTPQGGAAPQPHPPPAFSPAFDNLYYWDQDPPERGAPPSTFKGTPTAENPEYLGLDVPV
Procedure, shortened: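 BT-474 cells were treated with compounds (fourfold dilutions, 10 μM to 0.01 nM final) for 4 h at 37 °C, then lysed. pERBB2 in lysates was quantified by ELISA with an HRP anti-phosphotyrosine detection antibody and TMB read at 450 nm; % relative activity was normalized to no-cell and 0.1% DMSO controls.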

Ba/F3 ERBB2 YVMA = Ba/F3 ERBB2 YVMA (Homo sapiens, UniProt P04626, DUP772-775, cells depend on it); test: Cell viability assay (CellTiter Glo), Ba/F3 cells engineered to express ERBB2 YVMA; type: cell-based, mouse; conditions: Ba/F3 cells expressing human ERBB2 YVMA mutant, 72 hours, read-out: Ba/F3 ERBB2 YVMA, IC50
Ba/F3 ERBB2 YVMA, sequence (P04626 with tags, fused parts or gaps DUP772-775): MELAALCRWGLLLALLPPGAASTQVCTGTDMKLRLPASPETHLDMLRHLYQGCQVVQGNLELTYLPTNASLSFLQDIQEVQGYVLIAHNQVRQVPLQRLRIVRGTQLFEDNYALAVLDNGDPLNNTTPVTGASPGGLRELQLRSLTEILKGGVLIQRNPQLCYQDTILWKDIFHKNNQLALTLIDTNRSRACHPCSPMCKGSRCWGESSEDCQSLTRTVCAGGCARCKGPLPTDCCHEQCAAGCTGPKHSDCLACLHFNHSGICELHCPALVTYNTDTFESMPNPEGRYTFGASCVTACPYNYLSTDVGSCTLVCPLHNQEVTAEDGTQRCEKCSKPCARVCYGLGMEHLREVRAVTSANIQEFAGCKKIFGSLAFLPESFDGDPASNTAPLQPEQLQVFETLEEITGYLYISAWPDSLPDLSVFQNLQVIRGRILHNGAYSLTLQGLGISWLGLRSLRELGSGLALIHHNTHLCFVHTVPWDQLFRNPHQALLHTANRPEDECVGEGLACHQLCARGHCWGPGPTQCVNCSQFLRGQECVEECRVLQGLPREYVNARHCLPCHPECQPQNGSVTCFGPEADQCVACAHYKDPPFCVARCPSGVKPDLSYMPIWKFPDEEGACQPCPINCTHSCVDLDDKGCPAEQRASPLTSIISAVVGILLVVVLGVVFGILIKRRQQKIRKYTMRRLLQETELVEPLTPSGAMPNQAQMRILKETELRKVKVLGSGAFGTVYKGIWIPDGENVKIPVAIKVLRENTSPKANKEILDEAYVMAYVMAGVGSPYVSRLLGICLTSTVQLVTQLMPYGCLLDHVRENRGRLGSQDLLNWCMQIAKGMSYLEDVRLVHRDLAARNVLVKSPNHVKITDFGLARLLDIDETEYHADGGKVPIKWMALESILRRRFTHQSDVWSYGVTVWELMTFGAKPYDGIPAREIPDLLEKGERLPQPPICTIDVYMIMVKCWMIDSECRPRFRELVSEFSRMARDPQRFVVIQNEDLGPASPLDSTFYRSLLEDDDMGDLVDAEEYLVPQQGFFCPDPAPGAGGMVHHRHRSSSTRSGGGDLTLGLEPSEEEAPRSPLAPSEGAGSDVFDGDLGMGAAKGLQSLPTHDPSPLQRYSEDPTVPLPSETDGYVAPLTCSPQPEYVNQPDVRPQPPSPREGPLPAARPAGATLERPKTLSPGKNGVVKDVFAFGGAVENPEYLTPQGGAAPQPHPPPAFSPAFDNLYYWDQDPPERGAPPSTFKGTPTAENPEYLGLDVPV
Description: Cells were treated with compounds, and cell viability was measured as a metric of kinase inhibition.
BT-474, A431, MDA-MB-175VII, NCI-H1781, MCF7, and Ba/F3 cell lines were tested. The Ba/F3 cell line is IL-3-dependent mouse cell line derived from the C3H mouse strain. Ba/F3 cell lines were engineered to express human ERBB2 or EGFR kinases, rendering the cells IL-3 independent. The lines were generated via retroviral transduction utilizing a Moloney murine leukemia virus (MMLV) promoter, and constructs are stably integrated into the cell genome. The sequences of the ERBB2 and EGFR genes used were NCBI Reference Sequences NM_004448.3 and NM_005228.3, respectively.
BT-474, A431, MDA-MB-175VII, NCI-H1781 and MCF7 cells were grown in the appropriate growth medium as described in Table B2 below, and harvested at 50-80% confluence. BT-474, A431, MDA-MB-175VII, NCI-H1781 and MCF7 cells were counted and seeded at 2,000 or 1,500 cells per well in 384-well tissue culture plates (see Table B2). Similarly, Ba/F3 cell lines engineered to express EGFR, ERBB2, or ERBB2 mutants were grown, harvested, counted and seeded at 3000 cells per well in 96-well plates. A subset of wells contained media only (low control, “LC”).
Table B1 provides the growth media and number of cells seeded per well for the each cell line.
Compounds were dissolved in DMSO and serially diluted. Serially-diluted compound or a DMSO only control (high control, “HC”) was added to the plated cells in each well. Compounds were tested at concentrations of about 10 μM to 0.51 nM, using three-fold dilutions. The final proportion of DMSO never exceeded 0.1%.
Plates were placed in a 37° C., 5% CO2 incubator for 72 hours. Plates were then removed from the incubator and equilibrated for 15 minutes at room temperature. 40 μl of CellTiter Glo reagent (Promega) was added to measure the relative level of metabolically active cells by quantifying intracellular ATP concentrations. Plates were incubated for 30 minutes at room temperature, and luminescence was measured. Percent viability was normalized to a vehicle control only using the following formula: % viability=100×(Lumsample−LumLC)/(LumHC−LumLC). Graphical curves were fitted using a nonlinear regression model with a sigmoidal dose response.

T1 sequence (P00533 25-1210): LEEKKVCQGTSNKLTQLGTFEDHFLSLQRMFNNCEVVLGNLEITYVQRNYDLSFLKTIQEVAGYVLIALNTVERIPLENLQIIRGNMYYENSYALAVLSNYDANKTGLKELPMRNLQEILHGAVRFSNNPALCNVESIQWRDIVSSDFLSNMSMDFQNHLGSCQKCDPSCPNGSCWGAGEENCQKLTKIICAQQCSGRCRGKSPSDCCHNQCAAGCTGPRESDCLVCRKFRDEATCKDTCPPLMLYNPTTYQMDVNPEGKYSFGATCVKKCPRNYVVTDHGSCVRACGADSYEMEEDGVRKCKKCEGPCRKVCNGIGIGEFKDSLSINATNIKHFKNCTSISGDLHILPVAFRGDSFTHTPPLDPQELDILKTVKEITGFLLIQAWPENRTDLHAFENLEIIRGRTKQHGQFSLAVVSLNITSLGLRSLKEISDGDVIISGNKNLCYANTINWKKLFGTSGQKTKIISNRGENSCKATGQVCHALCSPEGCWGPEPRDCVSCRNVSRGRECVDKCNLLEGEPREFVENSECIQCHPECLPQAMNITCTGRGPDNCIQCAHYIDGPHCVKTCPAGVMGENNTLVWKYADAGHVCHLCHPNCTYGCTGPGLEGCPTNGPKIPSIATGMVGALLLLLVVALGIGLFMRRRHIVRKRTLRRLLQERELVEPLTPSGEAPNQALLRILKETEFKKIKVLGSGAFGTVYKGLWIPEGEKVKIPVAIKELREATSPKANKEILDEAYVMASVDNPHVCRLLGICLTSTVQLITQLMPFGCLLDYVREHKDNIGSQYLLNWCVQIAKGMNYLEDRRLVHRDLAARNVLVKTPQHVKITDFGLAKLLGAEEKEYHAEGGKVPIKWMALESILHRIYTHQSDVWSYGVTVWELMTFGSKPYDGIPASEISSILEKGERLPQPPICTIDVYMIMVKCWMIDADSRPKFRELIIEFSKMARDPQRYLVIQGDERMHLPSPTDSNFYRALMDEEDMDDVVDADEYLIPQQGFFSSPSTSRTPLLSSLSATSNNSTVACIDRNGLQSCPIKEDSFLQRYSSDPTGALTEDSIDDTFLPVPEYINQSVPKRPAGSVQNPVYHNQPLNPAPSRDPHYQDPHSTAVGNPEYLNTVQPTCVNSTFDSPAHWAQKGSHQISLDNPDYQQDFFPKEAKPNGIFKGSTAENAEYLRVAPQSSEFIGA

SMILES	pIC50 [1]	pIC50 [2]	GI50 (Ba/F3 ERBB2 YVMA) [nM]
Cc1cc(Nc2ncnc3ccc4c(c23)O[C@@H]2CCN(C)C[C@H]2N4C)ccc1Oc1ccc2c(c1)ncn2C (relative stereo) [Compound 124, trans-7,9-dimethyl-N-(3-methyl-4-((1-methyl-1H-benzo[d]imidazol-5-yl)oxy)phenyl)-7a,8,9,10,11,11a-hexahydro-7H-pyrido[3′,4′:5,6][1,4]oxazino[2,3-f]quinazolin-1-amine]	< 5.00	7.20	93.7
Cc1cc(Nc2ncnc3ccc4c(c23)O[C@H]2CCN(C)C[C@@H]2N4)ccc1Oc1ccc2c(c1)ncn2C (relative stereo) [Compound 126, trans-9-methyl-N-(3-methyl-4-((1-methyl-1H-benzo[d]imidazol-5-yl)oxy)phenyl)-7a,8,9,10,11,11a-hexahydro-7H-pyrido[3′,4′:5,6][1,4]oxazino[2,3-f]quinazolin-1-amine]	< 5.00	7.21	140
C=CC(=O)N1CCN2c3cc4c(Nc5ccc(Oc6ccn7ncnc7c6)c(C)c5)ncnc4cc3OC[C@@H]2C1 [Compound 3, (S)-1-(11-((4-([1,2,4]triazolo[1,5-a]pyridin-7-yloxy)-3-methylphenyl)amino)-1,2,4a,5-tetrahydropyrazino[1′,2′:4,5][1,4]oxazino[3,2-g]quinazolin-3(4H)-yl)prop-2-en-1-one]	6.67	7.89	10.4
C=CC(=O)N1CCN2c3cc4c(Nc5ccc(Oc6ccn7ncnc7c6)c(C)c5)ncnc4cc3OC[C@H]2C1 [Compound 4, (R)-1-(11-((4-([1,2,4]triazolo[1,5-a]pyridin-7-yloxy)-3-methylphenyl)amino)-1,2,4a,5-tetrahydropyrazino[1′,2′:4,5][1,4]oxazino[3,2-g]quinazolin-3(4H)-yl)prop-2-en-1-one]	5.88	7.85	62.4
C=CC(=O)N1CCN2c3ccc4ncnc(Nc5ccc(Oc6ccn7ncnc7c6)c(C)c5)c4c3OC[C@H]2C1 [Compound 6, (R)-1-(4-((4-([1,2,4]triazolo[1,5-a]pyridin-7-yloxy)-3-methylphenyl)amino)-6a,7,9,10-tetrahydropyrazino[1′,2′:4,5][1,4]oxazino[2,3-f]quinazolin-8(6H)-yl)prop-2-en-1-one]	6.27	8.14	6.23
C=CC(=O)N1CCN2c3cc4c(Nc5ccc(Oc6ccc7c(c6)ncn7C)c(C)c5)ncnc4cc3OC[C@H]2C1 [Compound 7, (R)-1-(11-((3-methyl-4-((1-methyl-1H-benzo[d]imidazol-5-yl)oxy)phenyl)amino)-1,2,4a,5-tetrahydropyrazino[1′,2′:4,5][1,4]oxazino[3,2-g]quinazolin-3(4H)-yl)prop-2-en-1-one]	5.75	7.51	112
COC(=O)N1CCN2c3ccc4ncnc(Nc5ccc(Oc6ccn7ncnc7c6)c(C)c5)c4c3OC[C@H]2C1 [Compound 110, methyl (R)-4-((4-([1,2,4]triazolo[1,5-a]pyridin-7-yloxy)-3-methylphenyl)amino)-6a,7,9,10-tetrahydropyrazino[1′,2′:4,5][1,4]oxazino[2,3-f]quinazoline-8(6H)-carboxylate]	< 5.00	7.13	–
Cc1cc(Nc2ncnc3ccc4c(c23)O[C@@H]2CCN(C)C[C@@H]2N4C)ccc1Oc1ccc2c(c1)ncn2C [Compound 129, (7aS,11aR)-7,9-dimethyl-N-(3-methyl-4-((1-methyl-1H-benzo[d]imidazol-5-yl)oxy)phenyl)-7a,8,9,10,11,11a-hexahydro-7H-pyrido[3′,4′:5,6][1,4]oxazino[2,3-f]quinazolin-1-amine]	< 5.00	–	111

Now from value to molecule, other results behind:

pIC50 [1]	pIC50 [2]	SMILES	GI50 (Ba/F3 ERBB2 YVMA) [nM]
7.07	8.24	C=CC(=O)N1CCN2c3nc4c(Nc5ccc(Oc6ccn7ncnc7c6)c(C)c5)ncnc4cc3OC[C@@H]2C1 [Compound 1, (S)-1-(11-((4-([1,2,4]triazolo[1,5-a]pyridin-7-yloxy)-3-methylphenyl)amino)-1,2,4a,5-tetrahydropyrazino[1,2-d]pyrimido[4′,5′:5,6]pyrido[3,2-b][1,4]oxazin-3(4H)-yl)prop-2-en-1-one]	1.6
6.38	8.05	C=CC(=O)N1CCN2c3nc4c(Nc5ccc(Oc6ccn7ncnc7c6)c(C)c5)ncnc4cc3OC[C@H]2C1 [Compound 2, (R)-1-(11-((4-([1,2,4]triazolo[1,5-a]pyridin-7-yloxy)-3-methylphenyl)amino)-1,2,4a,5-tetrahydropyrazino[1,2-d]pyrimido[4′,5′:5,6]pyrido[3,2-b][1,4]oxazin-3(4H)-yl)prop-2-en-1-one]	4.54
6.29	8.10	C=CC(=O)N1CCN2c3ccc4ncnc(Nc5ccc(Oc6ccn7ncnc7c6)c(C)c5)c4c3OC[C@@H]2C1 [Compound 5, (S)-1-(4-((4-([1,2,4]triazolo[1,5-a]pyridin-7-yloxy)-3-methylphenyl)amino)-6a,7,9,10-tetrahydropyrazino[1′,2′:4,5][1,4]oxazino[2,3-f]quinazolin-8(6H)-yl)prop-2-en-1-one]	4.62
< 5.00	7.43	Cc1cc(Nc2ncnc3cnc4c(c23)OC[C@H]2COCCN42)ccc1Oc1ccn2ncnc2c1 [Compound 106, (R)—N-(4-([1,2,4]triazolo[1,5-a]pyridin-7-yloxy)-3-methylphenyl)-6a,7,9,10-tetrahydro-6H-[1,4]oxazino[4,3-d]pyrimido[5′,4′:4,5]pyrido[3,2-b][1,4]oxazin-4-amine]	–
< 5.00	7.11	Cc1cc(Nc2ncnc3cc4c(nc23)N2CCOC[C@H]2CO4)ccc1Oc1ccc2c(c1)ncn2C [Compound 107, (S)—N-(3-methyl-4-((1-methyl-1H-benzo[d]imidazol-5-yl)oxy)phenyl)-1,2,4a,5-tetrahydro-4H-[1,4]oxazino[4,3-d]pyrimido[4′,5′:5,6]pyrido[3,2-b][1,4]oxazin-11-amine]	–
5.02	7.24	Cc1cc(Nc2ncnc3ccc4c(c23)OC[C@H]2COCCN42)ccc1Oc1ccc2c(c1)ncn2C [Compound 108, (R)—N-(3-methyl-4-((1-methyl-1H-benzo[d]imidazol-5-yl)oxy)phenyl)-6a,7,9,10-tetrahydro-6H-[1,4]oxazino[4′,3′:4,5][1,4]oxazino[2,3-f]quinazolin-4-amine]	–
< 5.00	7.34	COCCN1CCN2c3ccc4ncnc(Nc5ccc(Oc6ccn7ncnc7c6)c(C)c5)c4c3OC[C@H]2C1 [Compound 111, (R)—N-(4-([1,2,4]triazolo[1,5-a]pyridin-7-yloxy)-3-methylphenyl)-8-(2-methoxyethyl)-6,6a,7,8,9,10-hexahydropyrazino[1′,2′:4,5][1,4]oxazino[2,3-f]quinazolin-4-amine]	–
< 5.00	–	Cc1cc(Nc2ncnc3ccc4c(c23)O[C@@H]2CCN(C)C[C@@H]2N4C)ccc1Oc1ccc2c(c1)ncn2C [Compound 123, (7aS,11aR)-7,9-dimethyl-N-(3-methyl-4-((1-methyl-1H-benzo[d]imidazol-5-yl)oxy)phenyl)-7a,8,9,10,11,11a-hexahydro-7H-pyrido[3′,4′:5,6][1,4]oxazino[2,3-f]quinazolin-1-amine]	46.4
